Results taken from patent US10870662B2, “Alpha-amino pateamine A derivatives and methods for treating chronic lymphocytic leukemia” (The Texas A&M University System, priority 2015, dated 2020).
Like-named read-outs stand apart in the source and are kept apart here.

How the values were obtained:
[1] = tested on: chronic lymphocytic leukemia (CLL) cells; assay: CLL cell killing assay (annexin V / propidium iodide flow cytometry, 24 h); format: cell-based, human; settings: primary CLL cells
Method: Biological Activity of 2-Amino Pateamine Derivatives Peripheral blood from the CLL patients were collected in heparin vacutainer tubes and centrifuged at 1500 rpm for 15 min to separate the plasma. The plasma (upper layer) was removed and saved for cell culture. The lower layer was diluted with phosphate-buffered saline (PBS), and the mononuclear cells were isolated by Ficoll density-gradient centrifugation. The isolated CLL cells were cultured at 1×10^7 cells/mL in RPMI 1640 medium containing 10% of fetal bovine serum, 10% autologous plasma, or 50% autologous plasma. Cell death in CLL lymphocytes was evaluated by flow cytometry analysis using annexin V and propidium iodide (PI) double staining. After incubation with increasing concentrations of PatA analogs for 24 hours, CLL cells (1×10^6 cells) were stained in 100 μL binding buffer with 5 μL annexin-Cy5, and incubated for 15 minutes in dark at room temperature. After staining, 300 μL binding buffer with 5 μL of 50 μg/mL propidium iodide were added to each tube. Samples were analyzed immediately by flow cytometer. Cells stained positive for either annexin V or PI were considered dead cells. The IC50 values of CLL killing were determined by non-linear fitting of the survival curve by the GraphPad Prism software.

[2] = tested on: models of human leukemia and melanoma; settings: mice; cited from earlier work
[3] = Plasma protein binding (PPB) assay; format: in vitro ADME; settings: preliminary data
Method: In this example, a representative plasma protein binding (PPB) assay used to provide the plasma protein binding data is described.
The assay includes the following steps.
1. Frozen plasma was thawed and centrifuged at 1120 g for 10 min to remove any particulates. The plasma was decanted, the pH was measured and, if required, was adjusted to pH7.4 with lactic acid.
2. All compounds were prepared at 10 mM concentration in DMSO. The solutions were carefully vortexed to ensure the compounds dissolved. The 10 mM DMSO solutions were diluted to 500 μM MeOH solutions (5+95 μl).
3. In a 2 mL 96-well plate (DWP), 1000 μL of plasma was pipetted into each well in Columns 1-4.
4. 10 μL of the 500 μM compound solution was pipetted to 1000 μL of corresponding plasma. (The final DMSO=0.05%). The solution was capped and carefully vortexed for 5 min.
5. 200 μL of PBS buffer was added to each receiver well of the dialysis plate (buffer was added to the Receiver first).
6. The bottom of dialysis plate was capped and turned over to the orange donor side (top) of dialysis plate.
7. The orange donor side of the dialysis plate was uncapped and 200 μL of the […] drug/plasma samples were transferred from the 2 ml 96-DWP to the corresponding donor wells in the dialysis plate. […]
23. The samples in the Receiver Plate, Donor Plate, and Recovery Plate were analyzed by LC/MS/MS […]

[4] = tested on: P388 murine leukemia cells; settings: read-out: IC50, cytotoxic activity against P388 murine leukemia cells; cited from earlier work
[5] = CLL cell, RPMI 1640 with 10% autologous (human) plasma, read-out: IC50 CLL Assay, 10% plasma
[6] = CLL cell, RPMI 1640 with 50% autologous (human) plasma, read-out: IC50 CLL Assay, 50% plasma
[7] = Homo sapiens, CLL cell, RPMI 1640 with 10% fetal bovine serum, read-out: IC50 CLL Assay, 10% FBS
[8] = RPMI 1640 with 10% autologous (human) plasma, read-out: IC50 CLL Assay, 10% plasma
[9] = RPMI 1640 with 10% fetal bovine serum, read-out: IC50 CLL Assay, 10% FBS

Molecule	IC50 [1, 5] [nM]	IC50 [1, 6] [nM]	IC50 [1, 7] [nM]	further results
CC(/C=C/C(C)=C/[C@@H]1Cc2nc(cs2)CCC[C@H](NC(=O)OC(C)(C)C)C(=O)O[C@@H](C)C/C(C)=C/C=C\C(=O)O1)=C\CN(C)C [MZ578, tert-Butyl ((1^2Z,3S,6Z,8E,11S,14S)-3-((1E,3E,5E)-7-(dimethylamino)-2,5-dimethylhepta-1,3,5-trien-1-yl)-9,11-dimethyl-5,13-dioxo-4,12-dioxa-1(2,4)-thiazolacycloheptadecaphane-6,8-dien-14-yl) carbamate]	2010	8120	830	–
CC(=O)N[C@@H]1CCCc2csc(n2)C[C@@H](/C=C(C)/C=C/C(C)=C/CN(C)C)OC(=O)/C=C\C=C(/C)C[C@H](C)OC1=O [MZ757, N-((1^2Z,3S,6Z,8E,11S,14R)-3-((1E,3E,5E)-7-(dimethylamino)-2,5-dimethylhepta-1,3,5-trien-1-yl)-9,11-dimethyl-5,13-dioxo-4,12-dioxa-1(2,4)-thiazolacycloheptadecaphane-6,8-dien-14-yl) acetamide]	450	–	< 50	–
CC(C=CC(C)=CC1Cc2nc(cs2)CCCC(NC(=O)OC(C)(C)C(Cl)(Cl)Cl)C(=O)OC(C)CC(C)=CC=CC(=O)O1)=CCN(C)C [MZ576, 1,1,1-Trichloro-2-methylpropan-2-yl((1^2Z,3S,6Z,8E,11 S,14S)-3-((1E,3E,5E)-7-(dimethylamino)-2,5-dimethylhepta-1,3,5-trien-1-yl)-9,11-dimethyl-5,13-dioxo-4,12-dioxa-1 (2,4)-thiazolacycloheptadecaphane-6,8-dien-14-yl)carbamate]	–	–	–	IC50 [1, 8]: 6690 nM; IC50 [1, 9]: 3200 nM
CC(/C=C/C(C)=C/[C@@H]1Cc2nc(cs2)CCC[C@H](NS(C)(=O)=O)C(=O)O[C@@H](C)C/C(C)=C/C=C\C(=O)O1)=C\CN(C)C [MZ624, N-((1^2Z,3S,6Z,8E,11 S,14S)-3-((1E,3E,5E)-7-(dimethylamino)-2,5-dimethylhepta-1,3,5-trien-1-yl)-9,11-dimethyl-5,13-dioxo-4,12-dioxa-1(2,4)-thiazolacycloheptadecaphane-6,8-dien-14-yl) methanesulfonamide]	650	–	370	–
CC(=O)N[C@H]1CCCc2csc(n2)C[C@@H](/C=C(C)/C=C/C(C)=C/CN(C)C)OC(=O)/C=C\C=C(/C)C[C@H](C)OC1=O [MZ623, N-((1^2Z,3S,6Z,8E,11S,14S)-3-((1E,3E,5E)-7-(dimethylamino)-2,5-dimethylhepta-1,3,5-trien-1-yl)-9,11-dimethyl-5,13-dioxo-4,12-dioxa-1(2,4)-thiazolacycloheptadecaphane-6,8-dien-14-yl) acetamide]	460	–	310	–
CC(/C=C/C(C)=C/[C@@H]1Cc2nc(cs2)CCC[C@H](NC(=O)C(F)(F)F)C(=O)O[C@@H](C)C/C(C)=C/C=C\C(=O)O1)=C\CN(C)C [MZ579, N-((1^2Z,3S,6Z,8E,11S,14S)-3-((1E,3E,5E)-7-(dimethylamino)-2,5-dimethylhepta-1,3,5-trien-1-yl)-9,11-dimethyl-5,13-dioxo-4,12-dioxa-1(2,4)-thiazolacycloheptadecaphane-6,8-dien-14-yl)-2,2,2-trifluoroacetamide]	1790	7180	550	–
CC(/C=C/C(C)=C/[C@@H]1Cc2nc(cs2)CCC[C@H](N)C(=O)O[C@@H](C)C/C(C)=C/C=C\C(=O)O1)=C\CN(C)C [MZ577, (12Z,3S,6Z,8E,11S,14S)-14-Amino-3-((1E,3E,5E)-7-(dimethylamino)-2,5-dimethylhepta-1,3,5-trien-1-yl)-9,11-dimethyl-4,12-dioxa-1(2,4)-thiazolacycloheptadecaphane-6,8-diene-5,13-dione]	6360	–	3010	–
C/C(Br)=C\[C@@H]1Cc2nc(cs2)CCC[C@H](NC(=O)OC(C)(C)C)C(=O)O[C@@H](C)C/C(C)=C/C=C\C(=O)O1 [MZ554, tert-Butyl-((1^2Z,3S,6Z,8E,11S,14S)-3-((E)-2-bromoprop-1-en-1-yl)-9,11-dimethyl-5,13-dioxo-4,12-dioxa-1(2,4)-thiazolacycloheptadecaphane-6,8-dien-14-yl)carbamate]	> 10000	–	> 10000	–
CC(/C=C/C(C)=C/[C@@H]1Cc2nc(cs2)CCCCC(=O)O[C@@H](C)C/C(C)=C/C=C\C(=O)O1)=C\CN(C)C [DMDA Pat A, Des-methyl, des-amino pateamine A, reference compound]	5370	> 10000	710	activity in xenograft models [2]: significant tumor reduction; plasma protein binding in human plasma [3]: highly protein bound
CC(Br)=CC1Cc2nc(cs2)CCCC(NC(=O)OC(C)(C)C(Cl)(Cl)Cl)C(=O)OC(C)CC(C)=CC=CC(=O)O1 [MZ569a, 1,1,1-Trichloro-2-methylpropan-2-yl ((1^2Z,3S,6Z,8E,11S,14S)-3-((E)-2-bromoprop-1-en-1-yl)-9,11-dimethyl-5,13-dioxo-4,12-dioxa-1(2,4)-thiazolacycloheptadecaphane-6,8-dien-1^4-yl) carbamate]	–	–	–	IC50 [1, 8]: > 10000 nM; IC50 [1, 9]: > 10000 nM
CC(/C=C/C(C)=C/[C@@H]1Cc2nc(cs2)[C@@H](C)C[C@@H](N)CC(=O)O[C@@H](C)C/C(C)=C/C=C\C(=O)O1)=C\CN(C)C [PatA, Pateamine A]	160	470	150	IC50 [4]: 0.27 nM
1,1,1-Trichloro-2-methylpropan-2-yl ((1^2Z,3S,6Z,8E,11S,14R)-3-((1E,3E,5E)-7-(dimethylamino)-2,5-dimethylhepta-1,3,5-trien-1-yl)-9,11-dimethyl-5,13-dioxo-4,12-dioxa-1 (2,4)-thiazol acycloheptadecaphane-6,8-dien-14-yl)carbamate [MZ756]	–	–	–	IC50 [1, 8]: 5610 nM; IC50 [1, 9]: 1890 nM
C/C(Br)=C\[C@@H]1Cc2nc(cs2)CCC[C@H](NC(=O)C(F)(F)F)C(=O)O[C@@H](C)C/C(C)=C/C=C\C(=O)O1 [MZ569b, N-((1^2Z,3S,6Z,8E,11S,14S)-3-((E)-2-Bromoprop-1-en-1-yl)-9,11-dimethyl-5,13-dioxo-4,12-dioxa-1 (2,4)-thiazolacycloheptadecaphane-6,8-dien-1^4-yl)-2,2,2-trifluoroacetamide]	> 10000	–	> 10000	–
